From patent US10407467B2, “Polymyxin derivatives and their use in combination therapy together with different antibiotics” (priority 2013, dated 2019)
Structures can show the parent of a compound that is named as a salt. Where two headings read alike, the source gives them in different places. Numbered stars: 1 amine (or outer) side, 2 acyl side, 3 side chain; on linkers, the order of the positions; unused ones are H or OH. Bridge positions count the residues as written; N and C are the ends. Square brackets hold non-standard residues; d marks the D form. Peptide text beside a SMILES is read from it. * marks the point of attachment. ξ: configuration not given here. Acetyl(2-(piperazin-1-yl)) = O=C(CN1CCNCC1)*; ξβ3hPhg = O=C(CC(N[*:1])c1ccccc1)[*:2]; Thr(3ξ) = CC(O)[C@H](N)C(=O)O; X10 = NC1(CC(=O)*)CCCCC1; Dab = NCC[C@H](N)C(=O)O

Experiments:
P. aeruginosa ATCC 27853 = details: for effect on thigh burdens: 2 or 4 mg/kg IV three times at 1, 3.5 and 6 hours post infection; for Log reduction from vehicle (CFU/g): ATCC 27853, in vivo, iv
Escherichia coli [1] = assay: MIC, compound in combination with a second agent (broth microdilution); assay type: cell-based; details: 1:1 (wt:wt) combination with Rifampicin, MIC = total drug concentration; for MIC E. coli ATCC25922: strain ATCC25922
Procedure, shortened: (§1)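 Isolated colonies from an 18-24 hour Mueller-Hinton agar plate are suspended to the 0.5 McFarland standard, then tested against 1:1 w/w mixtures of compound and a second antibacterial such as rifampicin. Reported MICs represent total drug (both components).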

Pseudomonas aeruginosa [2] = assay: as above; assay type: cell-based; details: 1:1 (wt:wt) combination with Rifampicin, MIC = total drug concentration; for MIC P. aeruginosa ATCC 27853: strain ATCC 27853; for MIC P. aeruginosa ATCC-47: strain ATCC-47; for MIC P. aeruginosa CCUG 59626: strain CCUG 59626; for MIC P. aeruginosa ATCC CRM-9027: strain ATCC CRM-9027
Procedure, shortened: as §1

Klebsiella pneumoniae [3] = assay: as above; assay type: cell-based; details: 1:1 (wt:wt) combination with Rifampicin, MIC = total drug concentration; for MIC K. pneumoniae ATCC 4352: strain ATCC 4352; for MIC K. pneumoniae CCUG-59348: strain CCUG-59348; for MIC K. pneumoniae NCTC 13438: strain NCTC 13438; for MIC K. pneumoniae ATCC-BAA-2146: strain ATCC-BAA-2146
Procedure, shortened: as §1

Acinetobacter baumannii [4] = assay: as above; assay type: cell-based; details: 1:1 (wt:wt) combination with Rifampicin, MIC = total drug concentration; for MIC A. baumannii CCUG57249: strain CCUG57249; for MIC A. baumannii NCTC 13424: strain NCTC 13424; for MIC A. baumannii ATCC BAA-747: strain ATCC BAA-747; for MIC A. baumannii NCTC 13423: strain NCTC 13423
Procedure, shortened: as §1

Escherichia coli [5] = assay: MIC, sole activity (no second agent); assay type: cell-based; details: in the absence of Rifampicin
Procedure, shortened: (§2)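 Compound tested without a second agent in cation-adjusted MHB, up to four strains per species, inoculum at 0.5 McFarland from colonies grown 18-24 h on Mueller-Hinton agar. Run in duplicate, invalid beyond 2-fold disagreement, lower duplicate or modal repeat value given, expressed relative to Polymyxin B.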

Pseudomonas aeruginosa [6] = assay: MIC, sole activity (no second agent); assay type: cell-based; details: in the absence of Rifampicin; for MIC P. aeruginosa ATCC-47: strain ATCC-47; for MIC P. aeruginosa CCUG 59626: strain CCUG 59626
Procedure, shortened: as §2

Klebsiella pneumoniae [7] = assay: MIC, sole activity (no second agent); assay type: cell-based; details: in the absence of Rifampicin; for MIC K. pneumoniae CCUG-59348: strain CCUG-59348; for MIC K. pneumoniae NCTC-13438: strain NCTC-13438
Procedure, shortened: as §2

Acinetobacter baumannii [8] = assay: MIC, sole activity (no second agent); assay type: cell-based; details: in the absence of Rifampicin; for MIC A. baumannii ATCC13424: strain ATCC13424; for MIC A. baumannii CCUG57249: strain CCUG 57249
Procedure, shortened: as §2

SMILES	effect on thigh burdens (P. aeruginosa ATCC 27853)	Log reduction from vehicle (CFU/g) (P. aeruginosa ATCC 27853; 2 mg/kg, 6 h)	Log reduction from vehicle (CFU/g) (P. aeruginosa ATCC 27853; 4 mg/kg, 6 h)	MIC E. coli ATCC25922 (Escherichia coli [1])	MIC P. aeruginosa ATCC 27853 (Pseudomonas aeruginosa [2])	MIC P. aeruginosa ATCC-47 (Pseudomonas aeruginosa [2])	MIC P. aeruginosa CCUG 59626 (Pseudomonas aeruginosa [2])	MIC K. pneumoniae ATCC 4352 (Klebsiella pneumoniae [3])	MIC K. pneumoniae CCUG-59348 (Klebsiella pneumoniae [3])	MIC K. pneumoniae NCTC 13438 (Klebsiella pneumoniae [3])	MIC A. baumannii CCUG57249 (Acinetobacter baumannii [4])	MIC A. baumannii NCTC 13424 (Acinetobacter baumannii [4])	MIC P. aeruginosa ATCC-47 (Pseudomonas aeruginosa [6])	MIC P. aeruginosa CCUG 59626 (Pseudomonas aeruginosa [6])	MIC K. pneumoniae CCUG-59348 (Klebsiella pneumoniae [7])	MIC K. pneumoniae NCTC-13438 (Klebsiella pneumoniae [7])	MIC A. baumannii ATCC13424 (Acinetobacter baumannii [8])	MIC A. baumannii CCUG57249 (Acinetobacter baumannii [8])	MIC P. aeruginosa ATCC CRM-9027 (Pseudomonas aeruginosa [2])	MIC K. pneumoniae ATCC-BAA-2146 (Klebsiella pneumoniae [3])	also measured
CC(C)C[C@@H]1NC(=O)[C@@H](Cc2ccccc2)NC(=O)[C@H](CCN)NC(=O)[C@@H](NC(=O)[C@H](CCN)NC(=O)[C@@H](NC(=O)C(O)C2CCCCC2)C(C)O)CCNC(=O)[C@H](C(C)O)NC(=O)[C@H](CCN)NC(=O)[C@H](CCN)NC1=O (mixture of isomers) [Example 27, 2-(RS)-(2-Hydroxy-2-cyclohexyl)ethanoyl polymyxin B nonapeptide]	did not reduce thigh burdens significantly	0.24 log CFU/g	−0.58 log CFU/g	0.25 micrograms/mL	0.25 micrograms/mL	0.5 micrograms/mL	0.5 micrograms/mL	0.125 micrograms/mL	2 micrograms/mL	0.5 micrograms/mL	0.5 micrograms/mL	0.5 micrograms/mL	2 micrograms/mL	0.25 micrograms/mL	>8 micrograms/mL	>8 micrograms/mL	4 micrograms/mL	4 micrograms/mL			MIC E. coli ATCC25922 (Escherichia coli [5]; strain ATCC25922): 2 micrograms/mL; MIC P. aeruginosa ATCC 27853 (Pseudomonas aeruginosa [6]; strain ATCC27853): 0.125 micrograms/mL; MIC K. pneumoniae ATCC 4352 (Klebsiella pneumoniae [7]; strain ATCC 4352): 2 micrograms/mL
CC(C)C[C@@H]1NC(=O)[C@@H](Cc2ccccc2)NC(=O)[C@H](CCN)NC(=O)[C@@H](NC(=O)[C@H](CCN)NC(=O)[C@@H](NC(=O)CC(N)c2ccccc2)C(C)O)CCNC(=O)[C@H](C(C)O)NC(=O)[C@H](CCN)NC(=O)[C@H](CCN)NC1=O (stereo partly drawn) [Example 28, [3-(R,S)-3-Amino-3-phenylpropanoyl] Polymyxin B nonapeptide] (ξβ3hPhg-[Thr(3ξ)][Dab][Dab][Dab][dF]L[Dab][Dab][Thr(3ξ)]; lactam 3-C)				0.125 micrograms/mL	0.125 micrograms/mL	0.5 micrograms/mL	0.25 micrograms/mL		2 micrograms/mL	0.25 micrograms/mL	0.125 micrograms/mL	0.125 micrograms/mL	1 micrograms/mL	0.5 micrograms/mL	>32 micrograms/mL	32 micrograms/mL	1 micrograms/mL	1 micrograms/mL	0.5 micrograms/mL	0.5 micrograms/mL	Log reduction from vehicle (CFU/g) (P. aeruginosa ATCC 27853; 2 mg/kg, 9 h): −0.38 log CFU/g; Log reduction from vehicle (CFU/g) (P. aeruginosa ATCC 27853; 4 mg/kg, 9 h): 0.20 log CFU/g; MIC A. baumannii ATCC BAA-747 (Acinetobacter baumannii [4]): 0.125 micrograms/mL; MIC A. baumannii NCTC 13423 (Acinetobacter baumannii [4]): ≤0.06 micrograms/mL; MIC E. coli NCTC9001 (Escherichia coli [5]; strain NCTC9001): 32 micrograms/mL; MIC K. pneumoniae ATCC-BAA2146 (Klebsiella pneumoniae [7]; strain ATCC-BAA2146): 32 micrograms/mL
CC(C)C[C@@H]1NC(=O)[C@@H](Cc2ccccc2)NC(=O)[C@H](CCN)NC(=O)[C@@H](NC(=O)[C@H](CCN)NC(=O)[C@@H](NC(=O)CC2(N)CCCCC2)C(C)O)CCNC(=O)[C@H](C(C)O)NC(=O)[C@H](CCN)NC(=O)[C@H](CCN)NC1=O (stereo partly shown) [Example 42, 2-(1-aminocyclohexyl) ethanoyl Polymyxin B nonapeptide TFA salt] (X10-[Thr(3ξ)][Dab][Dab][Dab][dF]L[Dab][Dab][Thr(3ξ)]; lactam 3-C)	did not reduce thigh burdens significantly	−0.03 log CFU/g	−0.28 log CFU/g	≤0.06 micrograms/mL	0.125 micrograms/mL	≤0.06 micrograms/mL	0.125 micrograms/mL		4 micrograms/mL		≤0.06 micrograms/mL	≤0.06 micrograms/mL							0.25 micrograms/mL	0.125 micrograms/mL	MIC E. coli NCTC9001 (Escherichia coli [1]; strain NCTC9001): 0.125 micrograms/mL; MIC A. baumannii ATCC BAA-747 (Acinetobacter baumannii [4]): 0.125 micrograms/mL; MIC A. baumannii NCTC 13423 (Acinetobacter baumannii [4]): ≤0.06 micrograms/mL
CC(C)C[C@@H]1NC(=O)[C@@H](Cc2ccccc2)NC(=O)[C@H](CCN)NC(=O)[C@@H](NC(=O)[C@H](CCN)NC(=O)[C@@H](NC(=O)CN2CCNCC2)C(C)O)CCNC(=O)[C@H](C(C)O)NC(=O)[C@H](CCN)NC(=O)[C@H](CCN)NC1=O (stereo partly shown) [Example 52, (1-piperazine) ethanoyl polymyxin B nonapeptide, trifluoroacetate salt] ({Acetyl(2-(piperazin-1-yl))}-[Thr(3ξ)][Dab][Dab][Dab][dF]L[Dab][Dab][Thr(3ξ)]; lactam 3-C)	did not reduce thigh burdens significantly	−0.14 log CFU/g	−0.18 log CFU/g	≤0.06 micrograms/mL	0.125 micrograms/mL		0.125 micrograms/mL	0.125 micrograms/mL	8 micrograms/mL											1 micrograms/mL	
